Reference: patent publication US20040077580A1, “Antisense modulation of PI3K P85 Expression” (priority 2000, published 2004)
Strand notation (5' to 3'): a small letter for the sugar, then the base; units joined by * are phosphorothioate-linked, units joined directly phosphodiester-linked; [ ] holds rarer units or linkages, { } end groups; capitals alone tell only the bases. e = 2'-O-(2-methoxyethyl) (MOE); [5mC] = 5-methylcytosine; d = 2'-deoxy (DNA)

Experiments:
PI3K p85 splice variants = assay: Expression of PI3K p85 splice variants in liver, immunoprecipitation with p110 and Western blot with p85pan antibody; assay type: in vivo, mouse; settings: livers of both ob/ob and wild-type mice
Source text: ISIS 131410 is one of several antisense oligonucleotides of the present invention that hybridize to the longer p85α splice variant and not to the p55α or the p50α splice variant. Studies were therefore designed to study the effects of this antisense oligonucleotide on expression product of PI3K p85α splice variant.

mouse PI3K p85 = assay: Inhibition of mouse PI3K p85 mRNA levels by antisense oligonucleotides, real-time quantitative RT-PCR; assay type: cell-based; parameters: concentration or dose not given beside the values; settings: chimeric phosphorothioate 2′-MOE gapmers, averaged from two experiments
Protocol: Cells were harvested 16 hours after oligonucleotide treatment.
Target sites are indicated by nucleotide numbers, as given in the sequence source reference (Genbank accession no. U50413; SEQ ID NO: 48), to which the oligonucleotide binds.
Cytidine residues are 5-methylcytidines throughout the oligonucleotides.
Data were obtained by real-time quantitative RT-PCR as described in other examples herein and are averaged from two experiments. […] If present, “N.D.” indicates “no data”.

PI3K p85 mRNA = PI3K p85 mRNA expression in liver and fat of treated mice; assay type: in vivo, mouse
Protocol: Ob/ob mice are used as a model of obesity. The ob/ob phenotype is due to a mutation in the leptin gene on a C57BL/6J-Lep(ob) background.
In accordance with the present invention, the effects of ISIS 131410 (SEQ ID NO: 56) on PI3K p85 mRNA expression was investigated in the ob/ob mouse model of obesity.
Mice were treated at a dose of 25 mg/kg of ISIS 141925 or 25 mg/kg of ISIS 131410.
Treatment was continued for two weeks after which the mice were sacrificed and tissues collected for mRNA analysis. RNA values were normalized and are expressed as a percentage of saline treated control.
Lean littermates (ob/wt) were also examined for mRNA reduction of PI3K p85 in the liver at doses of 25 and 50 mg/kg of ISIS 131410 or saline treatment. In these animals, at both doses, the level of expression was reduced only minimally to 80% of control.

[1] = Serum insulin levels in ob/ob mice; assay type: in vivo, mouse; settings: male ob/ob mice; 50 mg/kg intraperitoneal once a week for two weeks
Source text: Treatment was continued for two weeks with serum insulin levels being measured on day 14.

[2] = for Blood glucose level at day 14: 25 or 50 mg/kg intraperitoneal once a week
[3] = male ob/ob mice, 25 mg/kg intraperitoneal once a week for two weeks, percentage of saline treated control
[4] = ob/ob mice, starting level 250 mg/dL at day 1

Substance: cctggccatcactgaatcca (CCTGGCCATCACTGAATCCA; chemistry not given here) [ISIS 131410]
- Species of PI3K p85 splice variant present in liver (PI3K p85 splice variants): alters the species of PI3K p85 variant present in favor of the p50α variant
- % Inhib. of mouse PI3K p85 mRNA levels (mouse PI3K p85): at least 60%
- PI3K p85 mRNA level in liver (PI3K p85 mRNA; lean littermates (ob/wt), at both doses, 25 and 50 mg/kg): 80 % of control
- PI3K p85 mRNA level in fat (PI3K p85 mRNA; [3]): 55 % of control
- PI3K p85 mRNA level in liver (PI3K p85 mRNA; [3]): 52 % of control
- Serum insulin level at day 14 [1]: 5 ng/mL
- Hypoglycemia as a result of oligonucleotide treatment ([2]; mouse, in vivo): no hypoglycemia induced
- Blood glucose level at day 14 [2, 4]: 150 mg/dL
- Blood glucose level at day 7 ([2]; ob/ob mice, all doses (25 or 50 mg/kg) intraperitoneal once a week, starting level 250 mg/dL at day 1): 180 mg/dL
- Blood glucose level, constant throughout the study (average) ([2]; wild-type mice, all treatment groups (25 or 50 mg/kg), two weeks): 150 mg/dL

Substance: GCCACCGCCTATGTCTTCTC (listed as DNA, chemistry not given here) [ISIS 141925, reference compound]
- PI3K p85 mRNA level in fat (PI3K p85 mRNA; [3]): no reduction
- PI3K p85 mRNA level in liver (PI3K p85 mRNA; [3]): no reduction
- Serum insulin level at day 14 [1]: 28 ng/mL
- Blood glucose level at day 14 [2, 4]: 240 mg/dL

Substance: 131415 (antisense eA*eT*eA*e[5mC]*eT*dG*dA*dA*dG*d[5mC]*dG*dT*dA*dA*dG*e[5mC]*e[5mC]*eA*eA*e[5mC]) [compound 131415]
- % Inhib. of mouse PI3K p85 mRNA levels (mouse PI3K p85): 75%

Substance: 131419 (antisense eG*e[5mC]*eT*e[5mC]*e[5mC]*dT*dG*dG*dG*dT*dT*dT*dG*dG*d[5mC]*eA*eT*eT*eG*eT) [compound 131419]
- % Inhib. of mouse PI3K p85 mRNA levels (mouse PI3K p85): 45%

Substance: 131406 (antisense e[5mC]*eG*e[5mC]*eT*eG*d[5mC]*dT*dT*d[5mC]*d[5mC]*dT*d[5mC]*d[5mC]*dA*dA*e[5mC]*eT*e[5mC]*eG*eG) [compound 131406]
- % Inhib. of mouse PI3K p85 mRNA levels (mouse PI3K p85): 56%

Substance: 131409 (antisense eG*e[5mC]*eA*e[5mC]*eT*d[5mC]*dA*dT*dG*dT*d[5mC]*dT*dG*d[5mC]*dA*eG*e[5mC]*eT*e[5mC]*eT) [compound 131409]
- % Inhib. of mouse PI3K p85 mRNA levels (mouse PI3K p85): 85%

Substance: 131422 (antisense e[5mC]*e[5mC]*eA*eT*eA*dG*d[5mC]*d[5mC]*dG*dG*dT*dG*dG*d[5mC]*dA*eG*eT*e[5mC]*eT*eT) [compound 131422]
- % Inhib. of mouse PI3K p85 mRNA levels (mouse PI3K p85): 40%

Substance: 131418 (antisense e[5mC]*e[5mC]*eT*eG*e[5mC]*dT*dG*dG*dT*dA*dT*dT*dT*dG*dG*eA*e[5mC]*eA*e[5mC]*eT) [compound 131418]
- % Inhib. of mouse PI3K p85 mRNA levels (mouse PI3K p85): 50%

Substance: 131421 (antisense eG*e[5mC]*eT*e[5mC]*e[5mC]*d[5mC]*dG*dA*d[5mC]*dA*dT*dT*d[5mC]*d[5mC]*dA*e[5mC]*eG*eT*e[5mC]*eT) [compound 131421]
- % Inhib. of mouse PI3K p85 mRNA levels (mouse PI3K p85): 65%

Substance: 131426 (antisense eG*e[5mC]*eA*eT*e[5mC]*dA*dA*dT*dG*dT*dT*d[5mC]*dT*d[5mC]*dT*e[5mC]*eA*eA*eA*eG) [compound 131426]
- % Inhib. of mouse PI3K p85 mRNA levels (mouse PI3K p85): 75%

Substance: tgctggtgctggctgtctct (eT*eG*e[5mC]*eT*eG*dG*dT*dG*d[5mC]*dT*dG*dG*d[5mC]*dT*dG*eT*e[5mC]*eT*e[5mC]*eT; antisense) [ISIS 131416]
- % Inhib. of mouse PI3K p85 mRNA levels (mouse PI3K p85): at least 60%

Substance: gctcccgacattccacgtct (eG*e[5mC]*eT*e[5mC]*e[5mC]*d[5mC]*dG*dA*d[5mC]*dA*dT*dT*d[5mC]*d[5mC]*dA*e[5mC]*eG*eT*e[5mC]*eT; antisense) [ISIS 131421]
- % Inhib. of mouse PI3K p85 mRNA levels (mouse PI3K p85): at least 60%
